Laboratory results published in patent publication US20110195949A1, “2-BENZOTHIOPHENYL- AND 2-NAPHTHYL-OXAZOLIDINONES AND THEIR AZAISOSTERE ANALOGUES AS ANTIBACTERIAL AGENTS” (ACTELION PHARMACEUTICALS LTD., priority 2008, published 2011).
Converted amounts (≈) assume the structure as drawn.

Tested on: M. catarrhalis A894
Test: Minimal inhibitory concentration (MIC), microdilution method in cation-adjusted Mueller-Hinton Broth (CLSI M7-A7)
Format: cell-based
Details: Moraxella catarrhalis, strain A894
Protocol: Minimal inhibitory concentrations (MICs; mg/L) were determined in cation-adjusted Mueller-Hinton Broth by a microdilution method following the description given in “Methods for Dilution Antimicrobial Susceptibility Tests for Bacteria that Grow Aerobically”, Approved standard, 7th ed., Clinical and Laboratory Standards Institute (CLSI) Document M7-A7, Wayne, Pa., USA, 2006. All Example compounds were tested against several Gram positive and Gram negative bacteria such as S. aureus, E. faecalis, S. pneumoniae, M. catarrhalis, A. baumanii, E. coli or P. aeruginosa.

| Structure (SMILES) | MIC |
| --- | --- |
| O=C1CSc2ccc(N3CC(CCCNCc4ccc5c(F)cccc5n4)OC3=O)cc2N1 (racemic) [Example 7, rac-6-(5-{3-[(5-fluoro-quinolin-2-ylmethyl)-amino]-propyl}-2-oxo-oxazolidin-3-yl)-4H-benzo[1,4]thiazin-3-one] | 0.063 µg/mL (≈ 0.135 µM) |
| COc1ccc2ncc(OCC3CN(C[C@@H]4CN(c5ccc6c(c5)NC(=O)CS6)C(=O)O4)C3)nc2c1 [Example 21, 6-{(R)-5-[3-(7-methoxy-quinoxalin-2-yloxymethyl)-azetidin-1-ylmethyl]-2-oxo-oxazolidin-3-yl}-4H-benzo[1,4]thiazin-3-one] | ≤ 0.031 µg/mL |
| O=C1CSc2ccc(N3C[C@H](CNCCCc4ccc5ccccc5n4)OC3=O)cc2N1 [Example 5, 6-{(S)-2-oxo-5-[(3-quinolin-2-yl-propylamino)-methyl]-oxazolidin-3-yl}-4H-benzo[1,4]thiazin-3-one] | ≤ 0.031 µg/mL |
| O=C1CSc2ccc(N3CC(CCCNCc4ccc5ccc(F)cc5n4)OC3=O)cc2N1 (racemic) [Example 2, rac-6-(5-{3-[(7-fluoro-quinolin-2-ylmethyl)-amino]-propyl}-2-oxo-oxazolidin-3-yl)-4H-benzo[1,4]thiazin-3-one] | 0.031 µg/mL (≈ 0.0664 µM) |
| O=C1CSc2ccc(N3CC(CCCNCc4ccc5ccccc5n4)OC3=O)cc2N1 (racemic) [Example 1, rac-6-(2-oxo-5-{3-[(quinolin-2-ylmethyl)-amino]-propyl}-oxazolidin-3-yl)-4H-benzo[1,4]thiazin-3-one] | 0.5 µg/mL (≈ 1.11 µM) |
| O=C1CSc2ccc(N3CC(CCCNCc4ccc5ccccc5c4)OC3=O)cc2N1 (racemic) [Example 12, rac-6-(5-{3-[(naphthalen-2-ylmethyl)-amino]-propyl}-2-oxo-oxazolidin-3-yl)-4H-benzo[1,4]thiazin-3-one] | 1 µg/mL (≈ 2.23 µM) |
| O=C1CSc2ccc(N3CC(CCCNCc4cc5nccnc5s4)OC3=O)cc2N1 (racemic) [Example 10, rac-6-(2-oxo-5-{3-[(thieno[2,3-b]pyrazin-6-ylmethyl)-amino]-propyl}-oxazolidin-3-yl)-4H-benzo[1,4]thiazin-3-one] | 0.25 µg/mL (≈ 0.549 µM) |
| O=C1COc2ccc(N3C[C@@H](CCCNCc4ccc5ccc(F)cc5n4)OC3=O)cc2N1 [Example 3, 6-((R)-5-{3-[(7-fluoro-quinolin-2-ylmethyl)-amino]-propyl}-2-oxo-oxazolidin-3-yl)-4H-benzo[1,4]oxazin-3-one] | ≤ 0.031 µg/mL |
| Cc1c(CNCCCC2CN(c3ccc4c(c3)NC(=O)CS4)C(=O)O2)sc2ccccc12 (racemic) [Example 8, rac-6-(5-{3-[(3-methyl-benzo[b]thiophen-2-ylmethyl)-amino]-propyl}-2-oxo-oxazolidin-3-yl)-4H-benzo[1,4]thiazin-3-one] | 0.063 µg/mL (≈ 0.135 µM) |
| COc1ccc2ccc(OCC3CCN(C[C@@H]4CN(c5ccc6c(c5)NC(=O)CS6)C(=O)O4)CC3)nc2c1 [Example 18, 6-{(R)-5-[4-(7-methoxy-quinolin-2-yloxymethyl)-piperidin-1-ylmethyl]-2-oxo-oxazolidin-3-yl}-4H-benzo[1,4]thiazin-3-one] | 0.5 µg/mL (≈ 0.935 µM) |
| COc1ccc2ccc(OC3CC(NC[C@@H]4CN(c5ccc6c(c5)NC(=O)CS6)C(=O)O4)C3)nc2c1 (stereo partly drawn) [Example 23, 6-((R)-5-{[3-(7-methoxy-quinolin-2-yloxy)-cyclobutylamino]-methyl}-2-oxo-oxazolidin-3-yl)-4H-benzo[1,4]thiazin-3-one] | ≤ 0.031 µg/mL |
| O=C1CSc2ccc(N3C[C@@H](CNCCc4ccc5ccccc5n4)OC3=O)cc2N1 [Example 24, 6-{(R)-2-oxo-5-[(2-quinolin-2-yl-ethylamino)-methyl]-oxazolidin-3-yl}-4H-benzo[1,4]thiazin-3-one] | 0.031 µg/mL (≈ 0.0713 µM) |
| O=C1CSc2ccc(N3CC(CCCNCc4ccc5cccnc5c4)OC3=O)cc2N1 (racemic) [Example 13, rac-6-(2-oxo-5-{3-[(quinolin-7-ylmethyl)-amino]-propyl}-oxazolidin-3-yl)-4H-benzo[1,4]thiazin-3-one] | 0.5 µg/mL (≈ 1.11 µM) |
| COc1ccc2ncc(OCC3CN(CC[C@@H]4CN(c5ccc6c(c5)NC(=O)CS6)C(=O)O4)C3)nc2c1 [Example 20, 6-((R)-5-{2-[3-(7-methoxy-quinoxalin-2-yloxymethyl)-azetidin-1-yl]-ethyl}-2-oxo-oxazolidin-3-yl)-4H-benzo[1,4]thiazin-3-one] | ≤ 0.031 µg/mL |
| COc1ccc2ccc(OC[C@@H]3CCN(C[C@@H]4CN(c5ccc6c(c5)NC(=O)CS6)C(=O)O4)C3)nc2c1 [Example 17, 6-{(R)-5-[(R)-3-(7-methoxy-quinolin-2-yloxymethyl)-pyrrolidin-1-ylmethyl]-2-oxo-oxazolidin-3-yl}-4H-benzo[1,4]thiazin-3-one] | ≤ 0.031 µg/mL |
| COc1cnc2cc(CNCCC[C@H]3CN(c4ccc5c(c4)NC(=O)CS5)C(=O)O3)c(F)cc2n1 [Example 29, 6-((S)-5-{3-[(7-fluoro-2-methoxy-quinoxalin-6-ylmethyl)-amino]-propyl}-2-oxo-oxazolidin-3-yl)-4H-benzo[1,4]thiazin-3-one] | ≤ 0.031 µg/mL |
| O=C1CSc2ccc(N3C[C@@H](CCNCc4ccc5ccccc5n4)OC3=O)cc2N1 [Example 15, 6-((R)-2-oxo-5-{2-[(quinolin-2-ylmethyl)-amino]-ethyl}-oxazolidin-3-yl)-4H-benzo[1,4]thiazin-3-one] | ≤ 0.031 µg/mL |
| O=C1COc2ccc(N3C[C@@H](CCCNCc4ccc5ccccc5n4)OC3=O)cc2N1 [Example 4, 6-((R)-2-oxo-5-{3-[(quinolin-2-ylmethyl)-amino]-propyl}-oxazolidin-3-yl)-4H-benzo[1,4]oxazin-3-one] | 0.063 µg/mL (≈ 0.146 µM) |
| O=C1CSc2ccc(N3C[C@@H](CNCCNCc4ccc5ccccc5n4)OC3=O)cc2N1 [Example 27, 6-[(R)-2-oxo-5-({2-[(quinolin-2-ylmethyl)-amino]-ethylamino}-methyl)-oxazolidin-3-yl]-4H-benzo[1,4]thiazin-3-one] | 1 µg/mL (≈ 2.16 µM) |
| COc1ccc2ncc(OCC3CN(C[C@@H]4CN(c5ccc6c(c5)NC(=O)CO6)C(=O)O4)C3)nc2c1 [Example 22, 6-{(R)-5-[3-(7-methoxy-quinoxalin-2-yloxymethyl)-azetidin-1-ylmethyl]-2-oxo-oxazolidin-3-yl}-4H-benzo[1,4]oxazin-3-one] | ≤ 0.031 µg/mL |
| O=C1COc2ccc(N3C[C@@H](CCNCCNc4ccc5ccccc5n4)OC3=O)cc2N1 [Example 26, 6-((R)-2-oxo-5-{2-[2-(quinolin-2-ylamino)-ethylamino]-ethyl}-oxazolidin-3-yl)-4H-benzo[1,4]oxazin-3-one] | 0.25 µg/mL (≈ 0.559 µM) |
| O=C1CSc2ccc(N3CC(CCCNCc4cnc5ccccc5c4)OC3=O)cc2N1 (racemic) [Example 11, rac-6-(2-oxo-5-{3-[(quinolin-3-ylmethyl)-amino]-propyl}-oxazolidin-3-yl)-4H-benzo[1,4]thiazin-3-one] | 4 µg/mL (≈ 8.92 µM) |
| O=C1CSc2ccc(N3C[C@@H](CN4CCN(Cc5ccc6ccccc6n5)CC4)OC3=O)cc2N1 [Example 28, 6-[(R)-2-oxo-5-(4-quinolin-2-ylmethyl-piperazin-1-ylmethyl)-oxazolidin-3-yl]-4H-benzo[1,4]thiazin-3-one] | 0.063 µg/mL (≈ 0.129 µM) |
| O=C1CSc2ccc(N3C[C@@H](CCNCCc4ccc5ccccc5n4)OC3=O)cc2N1 [Example 16, 6-{(R)-2-oxo-5-[2-(2-quinolin-2-yl-ethylamino)-ethyl]-oxazolidin-3-yl}-4H-benzo[1,4]thiazin-3-one] | ≤ 0.031 µg/mL |
| O=C1CSc2ccc(N3C[C@@H](CCCNCCc4ccc5ccccc5n4)OC3=O)cc2N1 [Example 25, 6-{(R)-2-oxo-5-[3-(2-quinolin-2-yl-ethylamino)-propyl]-oxazolidin-3-yl}-4H-benzo[1,4]thiazin-3-one] | 0.125 µg/mL (≈ 0.27 µM) |
| COc1ccc2ncc(OCC3CN(C[C@@H]4CN(c5ccc6c(c5)OCCO6)C(=O)O4)C3)nc2c1 [Example 19, (R)-3-(2,3-dihydro-benzo[1,4]dioxin-6-yl)-5-[3-(7-methoxy-quinoxalin-2-yloxymethyl)-azetidin-1-ylmethyl]-oxazolidin-2-one] | 0.25 µg/mL (≈ 0.522 µM) |
| O=C1CSc2ccc(N3CC(CCCNCc4ccc5ncccc5c4)OC3=O)cc2N1 (racemic) [Example 14, rac-6-(2-oxo-5-{3-[(quinolin-6-ylmethyl)-amino]-propyl}-oxazolidin-3-yl)-4H-benzo[1,4]thiazin-3-one] | 1 µg/mL (≈ 2.23 µM) |
| O=C1CSc2ccc(N3CC(CCCNCc4cc5ncccc5cc4F)OC3=O)cc2N1 (racemic) [Example 6, rac-6-(5-{3-[(6-fluoro-quinolin-7-ylmethyl)-amino]-propyl}-2-oxo-oxazolidin-3-yl)-4H-benzo[1,4]thiazin-3-one] | ≤ 0.031 µg/mL |
| O=C1CSc2ccc(N3CC(CCCNCc4cc5cccnc5s4)OC3=O)cc2N1 (racemic) [Example 9, rac-6-(2-oxo-5-{3-[(thieno[2,3-b]pyridin-2-ylmethyl)-amino]-propyl}-oxazolidin-3-yl)-4H-benzo[1,4]thiazin-3-one] | 0.125 µg/mL (≈ 0.275 µM) |
